In data set [1] the target is T1, DispTs2 (Terribacillus saccharophilus, UniProt A0A075LPR4).
T1 construct: gene GZ22_15930; mature polypeptide with polyhistidine tag
In words: crystal structure by soaking ([…] Å); only the NAG-thiazoline unit (NGT) modelled. Type of data set: binding.

Data set [2] addresses T1, DispTs2. The data set can be described thus: ITC and crystal structure ([…] Å). Type of data set: binding.
The target in data set [3] is T2, DispSf.
T2 construct: mature polypeptide with polyhistidine tag
In words: ITC. Type of data set: binding, Mammaliicoccus fleurettii.

The target of data set [4] is T3, DispLp (Lactiplantibacillus paraplantarum, UniProt A0AAD0TQY4).
T3 construct: gene LP667_05900; mature polypeptide with polyhistidine tag
T3 sequence (A0AAD0TQY4 31-361): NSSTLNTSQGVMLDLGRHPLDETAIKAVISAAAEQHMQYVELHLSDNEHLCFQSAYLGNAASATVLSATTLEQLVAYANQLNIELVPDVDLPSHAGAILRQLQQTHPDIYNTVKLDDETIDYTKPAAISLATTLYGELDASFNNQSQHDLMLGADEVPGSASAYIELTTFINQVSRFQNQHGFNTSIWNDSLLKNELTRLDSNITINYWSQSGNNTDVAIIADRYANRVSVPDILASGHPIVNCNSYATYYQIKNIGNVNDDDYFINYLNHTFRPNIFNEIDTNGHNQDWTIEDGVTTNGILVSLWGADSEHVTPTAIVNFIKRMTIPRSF
In words: crystal structure ([…] Å) and ITC. Type of data set: binding.

Substrate in data set [5]: CC(=O)N[C@H]1[C@H](Oc2ccc3c(C)cc(=O)oc3c2)O[C@H](CO)[C@@H](O)[C@@H]1O
The data set can be described thus: purified protein.

Take `CC(=O)N[C@H]1[C@H](OC[C@H]2O[C@@H]3SC(C)=N[C@@H]3[C@@H](O)[C@@H]2O)O[C@H](CO)[C@@H](O)[C@@H]1O` [di-NAG-thiazoline, GlcNAc-β(1,6)-GlcNAc-thiazoline]: in data set [1], the “crystal structure by soaking (2.17 Å); only the NAG-thiazoline unit (NGT) modell” value is on record as “The electron density for the first unit of di-NAG-thiazoline (corresponding to GlcNAc-thiazoline, NGT in the PDB dictionary) was well defined”. Regarding `CC(=O)N[C@H]1CN2CC[C@H](O)[C@@H]2[C@@H](O)[C@@H]1O` [6-Ac-Cas, 6-acetamido-6-deoxy-castanospermine], the Kd (usually the constant that tells how readily two partners part at equilibrium) in data set [2] was determined as 6 µM; in data set [3] it was 15 µM; in data set [4] it was 1120 µM.

B1: DispTs2 (Terribacillus saccharophilus) (protein)
chain: QDQEKGITIDISRKYYSIKTLKAIVDEISANGGDYLQLHFSDNESYAIASEFLGQNSENPNSAYLTKKELLSLIAYSNDRNIMVIPDIDLPAHSKGWLNIMKEKDSGLYTDIVTDYSEDTLDYHNNAVALYTANQLLDEVLDLFYQPKFAGKQRIVLGGDEVPGSGAHQTDFIRFMNQIAKTAKASNYEPQMWNDSITPEGIQNLDRSFSILYWKQSTLSNGAQSLDVQDFEENGLSVYNYNAYSLYFLPSTRFTQEDITEQIDYMKWAYAYNKFFYISDYYKQVDTPNVKGSSLVFWGEHANDLSQERLLKQEKPLIQNFLGL
Turning to B1, the Km – broadly, the concentration of substrate that gives half-maximal velocity – in data set [5] is 2500 ± 100 µM.
